Several values for one entry are separate records, joined by “and”; a condition that tells them apart may be missing. Equal values may be shown once. Entries after “also recorded” stand apart in the source; their conditions may differ.
Experiments:
Assay type in all cases: in vivo
[1] = Roundtable assessment of botanical notes (scale 0 to 5); parameters: key: 0 = none; 1 = trace/faint; 2 = slight; 3 = moderate; 4 = definite; 5 = strong; 6 = extreme
Procedure: For other sweetness attributes, the solutions were tested by a panel of at least four individuals that are highly-trained in tasting steviol glycoside solutions. The highly-trained panelists used a roundtable methodology to assess each sweetness attribute. To test each solution, the highly-trained panelists dispensed approximately 2 mL of each solution into their own mouths by transfer pipet, dispersed the solution by moving their tongues, and recorded a value for the particular sweetness attribute being tested. Between tasting solutions, the panelists were able to cleanse their palates with water. For each sweetness attribute, the panelist agreed on a descriptive scale with relative intensities assigned for each sweetness attribute and then recorded the values for each sweetness attribute against this. For example, this roundtable assessment of sweetness linger assigned a scale of 0 to 6 with a score of 0 indicating no sweetness linger and a score of 6 indicating extreme sweetness linger. Roundtable assessment of sweetness linger assigned a scale of 0 to 6 with a score of 0 indicating no sweetness linger and a score of 6 indicating extreme sweetness linger (0=none, 1=trace, 2=slight, 3=moderate, 4=definite, 5=strong, 6=extreme). Roundtable assessment of rounded assigned a scale of 0 to 3 with a score of 0 indicating spikey and a score of 3 indicating desirable rounded (0=none, 1=mostly spikey, some rounded, 2=mostly rounded, some spikey, 3=rounded). Roundtable assessment of mouthfeel assigned a scale of 0 to 2 with a score of 0 indicating water and a score of 2 indicating syrupy (0=water, 1=sucrosey, 2=syrupy). Roundtable assessment of bitterness assigned a scale of 0 to 6 with a score of 0 indicating no bitterness and a score of 6 indicating extreme sweetness linger (0=none, 1=trace, 2=slight, 3=moderate, 4=definite, 5=strong, 6=extreme). Roundtable assessment of off tastes assigned a scale of 0 to 6 with a score of 0 indicating no bitterness and a score of 6 indicating extreme off tastes (0=none, 1=trace, 2=slight, 3=moderate, 4=definite, 5=strong, 6=extreme).
Roundtable assessment of botanical notes assigned a scale of 0 to 5 with a score of 0 indicating no botanical notes and a score of 5 indicating strong (0=none, 1=trace, 2=slight, 3=moderate, 4=definite, 5=strong).
A series of assays were carried out to characterize botanical notes of sensory modifier compound (0=none, 1=trace/faint, 2=slight, 3=moderate, 4=definite, 5=strong) in steviol glycoside compositions using the roundtable methodology described in Example 1. […] Solutions of steviol glycosides and sensory modifier compound were prepared at increasing ratios of sensory modifier to steviol glycoside by weight. […] The concentration of steviol glycosides was 700 ppm in each solution. The solutions were tested for botanical notes.

[2] = Roundtable assessment of astringency; parameters: key: 0 = none; 1 = trace/faint; 2 = slight; 3 = moderate; 4 = definite; 5 = strong; 6 = extreme
Procedure: Solutions of steviol glycosides and sensory modifier compound were prepared at increasing ratios of sensory modifier to steviol glycoside by weight. […] The concentration of steviol glycosides was 700 ppm in each solution. The solutions were tested for astringency.

[3] = Sweetness intensity (SEV) by trained panel against 1%-14% sucrose standards; conditions: for sweetness intensity plateau (SEV): Reb M alone, at about 800 ppm; for sweetness intensity (SEV): about 1400 ppm Reb M with about 1400 ppm sensory modifier
Procedure: In some aspects, the amount of sensory modifier compound effective to increase sweetness intensity can be determined by panel testing with trained panelists. For example, […] can be determined by the following test: Solutions were prepared by dissolving steviol glycosides and sensory modifier compounds into reverse osmosis water at the indicated concentrations and/or ratios. Solutions were tested by a panel of at least four individuals that are highly-trained in tasting steviol glycoside solutions. The highly-trained panelists were trained against a standard range of 1%, 2%, 3%, 4%, 5%, 6%, 7%, 8%, 9%, 10%, 11%, 12%, 13%, and 14% sucrose solutions corresponding to 1, 2, 3, 4, 5, 6, 7, 8, 9, 10, 11, 12, 13, and 14 SEV. To test each solution, the highly-trained panelists dispensed approximately 2 mL of each solution into their own mouths by transfer pipet, dispersed the solution by moving their tongues, and recorded an SEV value for each solution based on comparison to the 1%, 2%, 3%, 4%, 5%, 6%, 7%, 8%, 9%, 10%, 11%, 12%, 13%, and 14% sucrose solutions. Between tasting solutions, the panelists were able to cleanse their palates with water. […] For sweetness intensity, the panelists focused on, and only recorded, the sweetness intensity in SEV that they tasted while disregarding other attributes of the solution. At the highest concentrations of steviol glycoside and sensory modifier compound, the panelists found other attributes to be highly noticeable, but recorded the isolated sweetness intensity for each solution despite these other attributes. Exemplary tests are described below in Example 1.
All solutions were prepared by dissolving steviol glycosides and sensory modifier compounds into reverse osmosis water at the indicated concentrations and/or ratios.
For sweetness intensity, the solutions were tested by a panel of at least four individuals that are highly-trained in tasting steviol glycoside solutions. The highly-trained panelists were trained against a standard range of 1%, 2%, 3%, 4%, 5%, 6%, 7%, 8%, 9%, 10%, 11%, 12%, 13%, and 14% sucrose solutions corresponding to 1, 2, 3, 4, 5, 6, 7, 8, 9, 10, 11, 12, 13, and 14 SEV. To test each solution, the highly-trained panelists dispensed approximately 2 mL of each solution into their own mouths by transfer pipet, dispersed the solution by moving their tongues, and recorded an SEV value for each solution based on comparison to the 1%, 2%, 3%, 4%, 5%, 6%, 7%, 8%, 9%, 10%, 11%, 12%, 13%, and 14% sucrose solutions. Between tasting solutions, the panelists were able to cleanse their palates with water. […] For this example, the panelists focused on and only recorded the sweetness intensity in SEV that they tasted while disregarding other attributes of the solution. At the highest concentrations of steviol glycoside and sensory modifier compound, the panelists found other attributes to be highly noticeable, but recorded the isolated sweetness intensity for each solution despite these other attributes.

[4] = RebM 700 ppm + cichoric acid (tartaric backbone) 514 ppm
[5] = RebM 700 ppm + cichoric acid (tartaric backbone) 772 ppm
[6] = RebM 700 ppm + cichoric acid (tartaric backbone) […]
[7] = RebM 700 ppm + rosmarinic acid 195 ppm
[8] = RebM 700 ppm + rosmarinic acid 391 ppm
[9] = RebM 700 ppm + rosmarinic acid 586 ppm
[10] = steviol glycoside 700 ppm + yerba mate mono/dicaffeoylquinic acids 236 ppm
[11] = steviol glycoside 700 ppm + yerba mate mono/dicaffeoylquinic acids 300 ppm
[12] = steviol glycoside 700 ppm + yerba mate mono/dicaffeoylquinic acids 400 ppm
[13] = steviol glycoside 700 ppm + yerba mate mono/dicaffeoylquinic acids 472 ppm
[14] = steviol glycoside 700 ppm + yerba mate mono/dicaffeoylquinic acids 500 ppm
[15] = steviol glycoside 700 ppm + yerba mate mono/dicaffeoylquinic acids 600 ppm
[16] = steviol glycoside 700 ppm + yerba mate mono/dicaffeoylquinic acids 700 ppm
[17] = steviol glycoside 700 ppm + yerba mate mono/dicaffeoylquinic acids 708 ppm
[18] = steviol glycoside 700 ppm + yerba mate mono/dicaffeoylquinic acids 800 ppm
[19] = steviol glycoside 700 ppm, sensory modifier 0 ppm

C=C1C[C@@]23CC[C@H]4[C@@](C)(CCC[C@@]4(C)C(=O)O[C@@H]4O[C@H](CO)[C@@H](O)[C@H](O[C@@H]5O[C@H](CO)[C@@H](O)[C@H](O)[C@H]5O)[C@H]4O[C@@H]4O[C@H](CO)[C@@H](O)[C@H](O)[C@H]4O)[C@@H]2CC[C@]1(O[C@@H]1O[C@H](CO)[C@@H](O)[C@H](O[C@@H]2O[C@H](CO)[C@@H](O)[C@H](O)[C@H]2O)[C@H]1O[C@@H]1O[C@H](CO)[C@@H](O)[C@H](O)[C@H]1O)C3 [RebM, Rebaudioside M]
Botanical notes [1, 4]: 4
Botanical notes [1, 5]: 5
Botanical notes [1, 6]: 3
Botanical notes [1, 7]: 2
Botanical notes [1, 8]: 3
Botanical notes [1, 9]: 2
Botanical notes ([1]; RebM 700 ppm, quinic backbone modifier between 0 ppm and about 400 ppm): imperceptible
Botanical notes [1, 10]: Not Observed
Botanical notes [1, 11]: 0
Botanical notes [1, 12]: 0
Botanical notes [1, 13]: 1
Botanical notes [1, 14]: 0
Botanical notes [1, 15]: 2
Botanical notes [1, 16]: 2
Botanical notes [1, 17]: 2
Botanical notes [1, 18]: 2
Botanical notes [1, 19]: 0
Astringency [2, 4]: 0
Astringency [2, 5]: 4
Astringency [2, 6]: 0
Astringency [2, 7]: 0
Astringency [2, 8]: 0
Astringency [2, 9]: 0
Astringency ([2]; RebM 700 ppm, 0 ppm to 700 ppm of quinic backbone modifier): no perceptible astringency; also recorded: imperceptible
Astringency [2, 10]: 0
Astringency [2, 11]: Not observed
Astringency [2, 12]: Not observed
Astringency [2, 13]: 0
Astringency [2, 14]: 0
Astringency [2, 15]: Not observed
Astringency [2, 16]: Not observed
Astringency [2, 17]: 0
Astringency [2, 18]: Not observed
Astringency [2, 19]: 0
sweetness intensity plateau (SEV) ([3]; listed as Reb M): about 11
sweetness intensity plateau (SEV) ([3]; listed as rebaudioside M): ~11
SEV ([3]; RebM 100 ppm + yerba mate mono/dicaffeoylquinic acids 100 ppm (1:1)): 3.5
SEV ([3]; RebM 100 ppm, no sensory modifier): 3.25
SEV ([3]; RebM 200 ppm + yerba mate mono/dicaffeoylquinic acids 200 ppm (1:1)): 6
SEV ([3]; RebM 200 ppm, no sensory modifier): 4.5
SEV ([3]; RebM 300 ppm + yerba mate mono/dicaffeoylquinic acids 300 ppm (1:1)): 7.5
SEV ([3]; RebM 300 ppm, no sensory modifier): 5.75
SEV ([3]; RebM 400 ppm + yerba mate mono/dicaffeoylquinic acids 400 ppm (1:1)): 8.5
SEV ([3]; RebM 400 ppm, no sensory modifier): 7.75
SEV ([3]; RebM 500 ppm + yerba mate mono/dicaffeoylquinic acids 500 ppm (1:1)): 9.25
SEV ([3]; RebM 500 ppm, no sensory modifier): 9
SEV ([3]; RebM 600 ppm + yerba mate mono/dicaffeoylquinic acids 600 ppm (1:1)): 10
SEV ([3]; RebM 600 ppm, no sensory modifier): 9.5
SEV [3, 4]: 10
SEV [3, 5]: 9
SEV [3, 6]: 10
SEV [3, 7]: 10.5
SEV [3, 8]: 10.25
SEV [3, 9]: 10.25
SEV ([3]; RebM 700 ppm + yerba mate mono/dicaffeoylquinic acids 700 ppm (1:1)): 10.5
SEV ([3]; RebM 700 ppm, no sensory modifier): 10.5
SEV ([3]; RebM 800 ppm + yerba mate mono/dicaffeoylquinic acids 800 ppm (1:1)): 10.5
SEV ([3]; RebM 800 ppm, no sensory modifier): 10.75
SEV ([3]; RebM 900 ppm + yerba mate mono/dicaffeoylquinic acids 900 ppm (1:1)): 11
SEV ([3]; RebM 900 ppm, no sensory modifier): 11
SEV ([3]; RebM 1000 ppm + yerba mate mono/dicaffeoylquinic acids 1000 ppm (1:1)): 11.5
SEV ([3]; RebM 1000 ppm, no sensory modifier): 11
SEV ([3]; RebM 1100 ppm + yerba mate mono/dicaffeoylquinic acids 1100 ppm (1:1)): 12
SEV ([3]; RebM 1100 ppm, no sensory modifier): 11
SEV ([3]; RebM 1200 ppm + yerba mate mono/dicaffeoylquinic acids 1200 ppm (1:1)): 12.25
SEV ([3]; RebM 1200 ppm, no sensory modifier): 11
SEV ([3]; RebM 1300 ppm + yerba mate mono/dicaffeoylquinic acids 1300 ppm (1:1)): 12.5
SEV ([3]; RebM 1400 ppm + yerba mate mono/dicaffeoylquinic acids 1400 ppm (1:1)): 13
SEV ([3]; RebM 1500 ppm + yerba mate mono/dicaffeoylquinic acids 1500 ppm (1:1)): 13
SEV ([3]; RebM 1600 ppm + yerba mate mono/dicaffeoylquinic acids 1600 ppm (1:1)): 13
sweetness intensity (SEV) ([3]; listed as Reb M): about 13
sweetness intensity (SEV) ([3]; listed as rebaudioside M): ~13
SEV [3, 10]: 10 and 10.5
SEV [3, 11]: 10.25
SEV [3, 12]: 10.25
SEV [3, 13]: 10
SEV [3, 14]: 10.00
SEV [3, 15]: 10.5
SEV [3, 16]: 10.5 and 10
SEV [3, 17]: 10
SEV [3, 18]: 10.5
SEV [3, 19]: 10.5

From patent US20190223483A1, “SENSORY MODIFIER COMPOUNDS” (CARGILL, INCORPORATED, priority 2017, published 2019)
